Assay results taken from patent US7696408B2, “Method to enhance Agrobacterium-mediated transformation of plants” (Regents of the University of Minnesota, priority 1999, dated 2010).
Several values for one entry are separate records, joined by “and”; a condition that tells them apart may be missing. Equal values may be shown once. Entries after “also recorded” stand apart in the source; their conditions may differ.

What was measured:
soybean explants = assay: Enzymatic browning and growth of soybean explants after co-cultivation; format: cell-based, Glycine max; details: for enzymatic browning of soybean explants: cysteine (e.g., 400-1000 mg/l) in solid co-cultivation medium
[1] = tested on: soybean cot-node explants; assay: GUS+ sectors, shoots and shoot primordia after 28 days (4 weeks) on shoot induction medium with PPT (stable transformation); format: cell-based, Glycine max; details: for % of explants with GUS+ shoots: Bert
Protocol: After 5 days, the explants were washed in a liquid shoot induction media (B5 salts, MSIII iron stock, 3% sucrose, 3 mM MES, and filter sterilized B5 vitamins, 1.67 mg/l BAP, 100 mg/l cefotaxime, and 500 mg/l ticarcillin; pH 5.6) to remove excess Agrobacterium. Seven to ten explants from each cysteine level were washed in liquid shoot induction medium and placed in GUS histochemical stain (Jefferson et al., 1987). These explants were scored for GUS transient expression. Five to ten explants from each group were imbedded into a single 25×100 mm petri plate with solid shoot induction media (0.8% agar and agent, e.g., 400 mg/l cysteine) containing PPT concentrations of 1.33 mg/l, 3.33 mg/l, or 5.0 mg/l for selection. The plates were then incubated in a growth chamber with a fluctuating temperature between 18° C.-30° C. under a 18 hours light/6 hours dark cycle at 90-150 μE/m^2s. The explants were removed from the chamber after 14 days and transferred to fresh shoot induction media containing herbicide selection. During the transfer, the hypocotyl was carefully removed from the developing shoot mass and imbedded into the media with the differentiating tissue flush with the media surface. The plates were placed back into the growth chamber for an additional 2 weeks. At the 4 week time point, explants without de novo shoot production were discarded. The cotyledons were then removed from the differentiating tissue by cutting at the base of the node and the callus trimmed before transferring into shoot elongation media containing MS salts (murashige and Skoog, 1962), MSIII iron stock, 3% sucrose, 3 mM MES, 0.8% agar, and filter sterilized B5 vitamins, 50 mg/l asparagine, 100 mg/l pyroglutamic acid, 1 mg/l zeatin riboside, 0.1 mg/l indole-acetic acid, 0.5 mg/l GA3, 100 mg/l cefotaxime, 500 mg/l ticarcillin, 1.3-5 mg/l PPT; pH 5.6). Also at this time, a percentage of the explants were sliced into about 10 sections and stained for both GUS positive sectors and GUS positive shoots. Every 2 weeks the explants were transferred into new shoot elongation media after removing dead plant tissue and the bottom of the explant cut to encourage shoot elongation of transformed shoots. For the 4 week data, the minimum number of transformation events was recorded. Those explants with a GUS positive sector in the differentiating tissue giving rise to shoots were recorded with the number of transformation events in bold and italicized (FIGS. 2-5). Shoot data was obtained by recording the number of fully formed shoots seen on an explant. […] To determine the effect of adding cysteine to the co-cultivation medium on stable transformation, co-cultured explants were cultured for 28 days on a shoot-inducing medium containing the herbicide, phosphinothricin (PPT). During the 28 day incubation, the explants usually form de novo callus and shoots in the cot-node region in a structure referred to as a callus/shoot pad (FIG. 9). The callus/shoot pads were sliced in approximately 5 mm sections, immersed into GUS histochemical stain, and scored for GUS^+ sectors throughout the callus/shoot pad. […] The formation of transgenic shoot primordia and sectors extending into developing shoot tissues were also scored on 28 day sections of explants co-cultivated on 0 and 400 mg/l cysteine (FIG. 10A). Only those GUS^+ shoot primordia with obvious trichomes, which are characteristic to leaf tissue, or GUS^+ sectors originating and extending into the tissue at the base of developing shoots (referred to hereafter as differentiating tissue) were scored (FIG. 1A2).

[2] = cysteine 400-1000 mg/l, eight independent experiments

N[C@@H](CS)C(=O)O [L-cysteine]
callus growth on the hypocotyl (soybean explants; co-cultivated in 1000 mg/l cysteine, 28 days): little callus growth on the hypocotyl | growth of the hypocotyls of explants (soybean explants; co-cultivated in 800 and 1000 mg/l cysteine, experiment #7): little to no growth of the hypocotyls | enzymatic browning of soybean explants (soybean explants; listed as Cysteine): decreased | enzymatic browning of soybean explants (soybean explants; listed as cysteine): less browning | % of explants with GUS+ shoots ([1]; 400 mg/l cysteine and 3.33 mg/l PPT): 16.6% and 16.7% | % of explants with GUS+ shoots ([1]; 400 mg/l cysteine and 5 mg/l PPT): 33.3% | average number of GUS+ sectors per explant, each genotype tested ([1]; 400 mg/l cysteine vs no cysteine, 28 day): significantly greater | frequency of explants with a GUS+ sector in differentiating tissue, relative to no cysteine ([1]; 400 mg/l cysteine, 28 days): 3.5 fold | percent of explants with GUS+ shoot primordia, relative to no cysteine ([1]; 400 mg/l cysteine, 28 days): 5 fold | average GUS+ foci/explant scored after 4 weeks of shoot initiation ([1]; 400 mg/l cysteine, low selection pressure 1.6 to 3.33 mg/l PPT, control 3.3): 15.6 GUS+ foci/explant | percent of explants with GUS+ shoot primordia or differentiated sectors, difference from 0 mg/l cysteine ([1]; 400 mg/l shoot primordia and differentiated sectors, 1000 mg/l shoot primordia, α=0.05): significantly differ | increase in GUS+ sectors over the control explants ([1]; 1000 mg/l cysteine, 28 days): 3.6 fold | average number of GUS+ sectors per explant compared to no cysteine ([1]; 300 to 1000 mg/l cysteine (FIG. 9 also 1500 mg/l), 28 days, P<0.05): significantly higher; also recorded: significantly differ | increase in GUS+ sectors over the no cysteine control ([1]; 400 to 1000 mg/l cysteine, 28 days): > 3 fold | explants with GUS+ shoot primordia at other cysteine levels ([1]; all other levels of cysteine tested, except 50 mg/l, 28 days): at least one explant | GUS+ foci at the 28-day interval ([1]; amended to solid co-cultivation media): increase | increase in GUS+ shoot primordia after 28 days [1, 2]: 5 fold | increase in stable T-DNA integration after 28 days [1, 2]: 3.6 fold | number of GUS+ sectors on the callus/shoot pad, cysteine in shoot induction medium ([1]; cysteine added to shoot induction medium for 28 days): did not increase | increase in stable T-DNA transfer in newly developed shoot primordia ([1]; cysteine in co-cultivation media): ≥ 5 fold
